Reference: US10053458B2, “Pyrimidine-2,4-diamine derivative and anticancer pharmaceutical composition comprising same as effective ingredient” (KOREA RESEARCH INSTITUTE OF CHEMICAL TECHNOLOGY, priority 2014, dated 2018)
Where two headings read alike, the source gives them in different places.

Columns and labels:
BaF3 EML4-ALK WT cells [1] = details: mouse, 3 days
H3122 = assay: Cancer cell proliferation inhibition (SRB/MTS), H3122; details: read-out: H3122 GI50
Protocol: (§1) Cancer cell lines used in the experiments were all human-derived cancer cell lines, specifically H2228 and H3122, which are non-small cell lung cancer cell lines.
(§2) The cancer cell proliferation inhibition was measured using the MTS assay as follows. […] Each culture medium was placed in an incubator for 4 hours, taken out and left at room temperature for 10 minutes.

H2228 = assay: Cancer cell proliferation inhibition (SRB/MTS), H2228; details: read-out: H2228 GI50
Protocol: as §1, §2

ALK wt. = ALK wt. (Homo sapiens (Human), UniProt Q9UM73); assay: ALK enzyme inhibitory activity (HTRF kinase assay), ALK wt.; details: read-out: ALK wt. IC50, enzyme level
BaF3 EML4-ALK WT cells [2] = assay: Cytotoxicity on BaF3 cell transfected with EML4-ALK WT (WST-1); details: read-out: BaF3 EML4-ALK WT, IC50 of the cytotoxicity
[3] = non-small cell lung cancer cell line, 72 hours

ALK wt., sequence (Q9UM73 19-1620): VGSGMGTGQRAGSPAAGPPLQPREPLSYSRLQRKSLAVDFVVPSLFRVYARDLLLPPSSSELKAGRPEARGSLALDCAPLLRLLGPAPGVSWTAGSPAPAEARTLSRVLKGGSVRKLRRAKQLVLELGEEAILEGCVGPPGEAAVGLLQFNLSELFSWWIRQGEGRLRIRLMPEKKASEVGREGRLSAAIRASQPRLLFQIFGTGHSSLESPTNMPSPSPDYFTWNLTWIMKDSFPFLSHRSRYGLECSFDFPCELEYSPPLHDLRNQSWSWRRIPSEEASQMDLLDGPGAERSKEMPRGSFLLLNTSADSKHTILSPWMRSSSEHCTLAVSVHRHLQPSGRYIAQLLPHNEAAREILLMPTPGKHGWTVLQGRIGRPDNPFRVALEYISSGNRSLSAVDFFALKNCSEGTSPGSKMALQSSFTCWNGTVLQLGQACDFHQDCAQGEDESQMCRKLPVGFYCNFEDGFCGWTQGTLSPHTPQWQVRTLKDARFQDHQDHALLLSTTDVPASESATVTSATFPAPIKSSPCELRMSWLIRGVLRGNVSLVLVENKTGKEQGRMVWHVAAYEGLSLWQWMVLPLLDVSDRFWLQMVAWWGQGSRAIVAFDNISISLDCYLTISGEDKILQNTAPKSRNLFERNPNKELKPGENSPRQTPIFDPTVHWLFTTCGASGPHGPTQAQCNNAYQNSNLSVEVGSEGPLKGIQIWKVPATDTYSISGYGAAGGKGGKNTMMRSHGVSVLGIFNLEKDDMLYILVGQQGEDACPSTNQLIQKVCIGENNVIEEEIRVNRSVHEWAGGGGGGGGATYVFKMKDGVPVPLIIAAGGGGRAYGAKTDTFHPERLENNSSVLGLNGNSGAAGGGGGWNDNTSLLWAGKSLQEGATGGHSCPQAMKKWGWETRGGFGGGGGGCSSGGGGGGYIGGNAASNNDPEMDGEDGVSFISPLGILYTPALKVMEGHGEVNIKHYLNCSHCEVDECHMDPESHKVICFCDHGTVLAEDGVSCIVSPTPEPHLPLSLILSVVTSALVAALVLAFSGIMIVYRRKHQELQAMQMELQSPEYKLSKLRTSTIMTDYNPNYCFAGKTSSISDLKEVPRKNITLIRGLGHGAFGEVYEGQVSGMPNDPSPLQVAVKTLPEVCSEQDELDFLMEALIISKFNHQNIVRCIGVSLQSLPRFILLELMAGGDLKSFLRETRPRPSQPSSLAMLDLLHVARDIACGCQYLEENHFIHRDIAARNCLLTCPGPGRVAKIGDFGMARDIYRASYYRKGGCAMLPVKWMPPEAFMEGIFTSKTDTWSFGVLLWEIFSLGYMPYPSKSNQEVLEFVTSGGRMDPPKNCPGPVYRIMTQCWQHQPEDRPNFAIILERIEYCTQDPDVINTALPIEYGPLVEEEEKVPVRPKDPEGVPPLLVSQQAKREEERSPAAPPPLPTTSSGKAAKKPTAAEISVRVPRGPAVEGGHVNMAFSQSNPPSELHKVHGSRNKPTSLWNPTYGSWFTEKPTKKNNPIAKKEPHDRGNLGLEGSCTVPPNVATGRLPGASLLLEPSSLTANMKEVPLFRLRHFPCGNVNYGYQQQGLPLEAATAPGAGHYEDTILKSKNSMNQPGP

| IC50 (BaF3 EML4-ALK WT cells [1]) [nM] | GI50 (H3122; Homo sapiens, NCI-H3122, 72 h) [nM] | GI50 (H2228; Homo sapiens, NCI-H2228, 72 h) [nM] | Structure (SMILES) | IC50 (ALK wt.) [nM] | IC50 (BaF3 EML4-ALK WT cells [2]; 3 days, WST-1) [nM] | GI50 (H3122; [3]) [nM] | GI50 (H2228; [3]) [nM] | IC50 (BaF3 EML4-ALK WT cells [2]; Ba/F3 EML4-ALK, 72 h) [nM] |
| --- | --- | --- | --- | --- | --- | --- | --- | --- |
| 19 | 23 | 25 | Cc1cc(Nc2ncc(Cl)c(Nc3ccccc3S(=O)(=O)C(C)C)n2)c(OC(C)C)cc1C1CCNCC1 [Comparative Example 2, LDK-378, reference compound] | – | – | – | – | – |
| – | – | – | COc1cc2c(cc1Nc1ncc(Cl)c(Nc3ccccc3S(=O)(=O)C(C)C)n1)CN(CCO)CC2(C)C [Example 93] | < 10 | < 50 | < 50 | < 50 | – |
| – | < 50 | < 50 | COc1cc2c(cc1Nc1ncc(Cl)c(Nc3ccccc3S(=O)(=O)C(C)C)n1)CNC2(C)C [Example 106, 5-chloro-N4-(2-(isopropylsulfonyl)phenyl)-N2-(6-methoxy-1,1-dimethylisoindolin-5-yl)pyrimidine-2,4-diamine] | – | – | – | – | < 50 |
